Laboratory results: PubChem BioAssay AID330 (DTP/NCI, 2004)
“And” between values parts separate entries of the source, which are not always exact repeats. Equal values may be shown once. Toxic doses and inconclusive results are not listed. The calls were made as follows: active = survival T/C of 150% or more; inactive = T/C below 125% in these data. Numbered stars: 1 amine (or outer) side, 2 acyl side, 3 side chain; on linkers, the order of the positions; unused ones are H or OH. Bridge positions count the residues as written; N and C are the ends. Square brackets hold non-standard residues; d marks the D form. Peptide text beside a SMILES is read from it. * marks the point of attachment. ξ: configuration not given here. ξOrn(4,5-diOH) = O=C(C(CC(O)C(O)N[*:3])N[*:1])[*:2]; ξhTyr(βξ-OH,γξ-OH) = NC(C(=O)O)C(O)C(O)c1ccc(O)cc1; ξPro(3ξ-OH,4ξ-Me) = CC1CNC(C(=O)O)C1O; X22 = CCCCC/C=C/C/C=C\CCCCCCCC(=O)*; Hyp = O=C(O)[CH]1C[CH](O)CN1

Test system: P388 leukemia ip, CD2F1 mice, survival T/C
Assay: NCI In Vivo Anticancer Drug Screen. Data for tumor model P388 Leukemia (intraperitoneal) in CD2F1 (CDF1) mice
Settings: endpoint: median survival time, higher = longer survival
Outline: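 Mice carrying the transplanted tumor received test compound or vehicle. Survival was recorded in each group, and the value is the treated-group measurement divided by that of the vehicle-treated control group.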

[1] = dose: 12.5 mg/kg/injection, schedule: Q01DX009 (ip), vehicle: saline
[2] = dose: 25.0 mg/kg/injection, schedule: Q01DX009 (ip), vehicle: saline
[3] = dose: 50.0 mg/kg/injection, schedule: Q01DX009 (ip), vehicle: saline with Tween-80
[4] = dose: 100.0 mg/kg/injection, schedule: Q01DX009 (ip), vehicle: saline with Tween-80
[5] = dose: 200.0 mg/kg/injection, schedule: Q01DX009 (ip), vehicle: saline with Tween-80
[6] = dose: 50.0 mg/kg/injection, schedule: Q01DX005 (ip), vehicle: Klucel (hydroxypropylcellulose) (HPC)
[7] = dose: 100.0 mg/kg/injection, schedule: Q01DX005 (ip), vehicle: Klucel (hydroxypropylcellulose) (HPC)
[8] = dose: 200.0 mg/kg/injection, schedule: Q01DX005 (ip), vehicle: Klucel (hydroxypropylcellulose) (HPC)
[9] = dose: 50.0 mg/kg/injection, schedule: Q01DX009 (ip), vehicle: Klucel (hydroxypropylcellulose) (HPC)
[10] = dose: 100.0 mg/kg/injection, schedule: Q01DX009 (ip), vehicle: Klucel (hydroxypropylcellulose) (HPC)
[11] = dose: 200.0 mg/kg/injection, schedule: Q01DX009 (ip), vehicle: Klucel (hydroxypropylcellulose) (HPC)
[12] = dose: 6.25 mg/kg/injection, schedule: Q01DX009 (ip), vehicle: saline
[13] = dose: 50.0 mg/kg/injection, schedule: Q01DX009 (ip), vehicle: saline

Measured: T/C

CCC(c1ccc(O)cc1)c1cc2c(cc1OCCO)OCO2 (stereo unspecified)
inactive: dose: 50.0 mg/kg/injection, schedule: Q01DX005 (ip), vehicle: saline with Tween-80 95 % of control | dose: 100.0 mg/kg/injection, schedule: Q01DX005 (ip), vehicle: saline with Tween-80 98 % of control | dose: 200.0 mg/kg/injection, schedule: Q01DX005 (ip), vehicle: saline with Tween-80 95 % of control

OCCNCCNCC[OH2+].OCCNCCNCC[OH2+].[Ni+2].[O-][Cl+3]([O-])([O-])[O-]
inactive: [1] 100 % of control | [2] 98 % of control

COc1cc(CC2c3cc(OC)c(OC)cc3CC[N+]2(C)C)c(Oc2cc(CC3c4cc(OC)c(OC)cc4CC[N+]3(C)C)ccc2OC)cc1OC (stereo unspecified)
inactive: dose: 1.56 mg/kg/injection, schedule: Q04DX003 (ip), vehicle: water 109 % of control | dose: 3.13 mg/kg/injection, schedule: Q04DX003 (ip), vehicle: water 103 % of control

CCOC(=C[P+](c1ccccc1)(c1ccccc1)c1ccccc1)OCC
inactive: dose: 0.39 mg/kg/injection, schedule: Q01DX005 (ip), vehicle: water 98 % of control and 103 % of control | dose: 0.78 mg/kg/injection, schedule: Q01DX005 (ip), vehicle: water 107 % of control and 96 % of control | dose: 1.56 mg/kg/injection, schedule: Q01DX005 (ip), vehicle: water 102 % of control and 110 % of control and 121 % of control | dose: 3.12 mg/kg/injection, schedule: Q01DX005 (ip), vehicle: water 113 % of control and 118 % of control and 124 % of control | dose: 6.25 mg/kg/injection, schedule: Q01DX005 (ip), vehicle: water 109 % of control

CC1OC(O[C@@H]2C=C3CC[C@@H]4[C@H](CC[C@]5(C)[C@@H](c6ccc(=O)oc6)CC[C@]45O)[C@@]3(C)CC2)C(O)C(O)C1O (stereo partly specified)
inactive: dose: 1.25 mg/kg/injection, schedule: Q01DX010 (sc), vehicle: steriod suspending solution 110 % of control | dose: 2.5 mg/kg/injection, schedule: Q01DX010 (sc), vehicle: steriod suspending solution 110 % of control | dose: 5.0 mg/kg/injection, schedule: Q01DX010 (sc), vehicle: steriod suspending solution 110 % of control | dose: 10.0 mg/kg/injection, schedule: Q01DX010 (sc), vehicle: steriod suspending solution 115 % of control

CC1CCP(c2ccccc2)C1 (stereo unspecified)
inactive: dose: 100.0 mg/kg/injection, schedule: Q01DX001 (ip), vehicle: saline with Tween-80 105 % of control | dose: 200.0 mg/kg/injection, schedule: Q01DX001 (ip), vehicle: saline with Tween-80 116 % of control

O=C1NC(=O)C2C1C(C(=O)O)C1C3C(=O)NC(=O)C3C1C2C(=O)O (stereo unspecified)
inactive: dose: 25.0 mg/kg/injection, schedule: Q01DX009 (ip), vehicle: saline with Tween-80 91 % of control | [3] 94 % of control | [4] 97 % of control | [5] 91 % of control and 92 % of control | dose: 400.0 mg/kg/injection, schedule: Q01DX009 (ip), vehicle: saline with Tween-80 96 % of control

C=C1CC2(CCCCC2Cc2ccccc2)OC1=O (stereo unspecified)
inactive: dose: 100.0 mg/kg/injection, schedule: Q04DX002 (ip), vehicle: saline 100 % of control | dose: 200.0 mg/kg/injection, schedule: Q04DX002 (ip), vehicle: saline 101 % of control | dose: 400.0 mg/kg/injection, schedule: Q04DX002 (ip), vehicle: saline 99 % of control

Cc1ccc(S(=O)(=O)ON=C2CC(c3ccccc3)N(C)C(c3ccccc3)C2)cc1 (stereo unspecified)
inactive: [6] 116 % of control and 101 % of control | [7] 107 % of control and 104 % of control | [8] 100 % of control

Cc1ccc(N=C(Cl)Nc2ccc(C)cc2)cc1
inactive: [3] 105 % of control | [4] 108 % of control | [5] 98 % of control

CCCCC/C=C/C/C=C\CCCCCCCC(=O)NC1CC(O)C(O)NC(=O)C2C(O)C(C)CN2C(=O)C(C(C)O)NC(=O)C(C(O)C(O)c2ccc(O)cc2)NC(=O)C2CC(O)CN2C(=O)C(C(C)O)NC1=O (stereo not drawn) (X22-[ξOrn(4,5-diOH)]T[Hyp][ξhTyr(βξ-OH,γξ-OH)]T[ξPro(3ξ-OH,4ξ-Me)]; lactam 1-C; configuration not given here)
inactive: dose: 0.25 mg/kg/injection, schedule: Q01DX009 (ip), vehicle: lactate 100 % of control | dose: 0.5 mg/kg/injection, schedule: Q01DX009 (ip), vehicle: lactate 104 % of control

CCCC(C)/C=C(\C)C(O)C(C)/C=C/CCC(O)C(C)C(O)C(C)C(O)C(C)C1OC(C(C)C(=O)OC)CCC1C (stereo unspecified)
inactive: dose: 12.5 mg/kg/injection, schedule: Q01DX005 (ip), vehicle: dimethyl formamide 111 % of control | dose: 25.0 mg/kg/injection, schedule: Q01DX005 (ip), vehicle: dimethyl formamide 108 % of control | dose: 50.0 mg/kg/injection, schedule: Q01DX005 (ip), vehicle: dimethyl formamide 102 % of control

CN1NC(=O)c2ccccc2NC1=S
inactive: [9] 104 % of control | [10] 91 % of control | [11] 101 % of control

Cc1nnc2c([N+](=O)[O-])c(N)c(Cl)nn12
inactive: dose: 7.5 mg/kg/injection, schedule: Q01DX005 (ip), vehicle: saline with Tween-80 118 % of control | dose: 15.0 mg/kg/injection, schedule: Q01DX005 (ip), vehicle: saline with Tween-80 113 % of control

COc1ccc(OC)c(C=C(C(C)=O)C(C)=O)c1
inactive: dose: 25.0 mg/kg/injection, schedule: Q01DX009 (ip), vehicle: other 111 % of control | dose: 50.0 mg/kg/injection, schedule: Q01DX009 (ip), vehicle: other 105 % of control | dose: 100.0 mg/kg/injection, schedule: Q01DX009 (ip), vehicle: other 109 % of control | dose: 200.0 mg/kg/injection, schedule: Q01DX009 (ip), vehicle: other 108 % of control | dose: 400.0 mg/kg/injection, schedule: Q01DX009 (ip), vehicle: other 115 % of control

O=[N+]([O-])C1(Cl)CCC(Cl)([N+](=O)[O-])CC1 (stereo unspecified)
inactive: dose: 100.0 mg/kg/injection, schedule: Q01DX001 (ip), vehicle: Klucel (hydroxypropylcellulose) (HPC) 100 % of control | dose: 200.0 mg/kg/injection, schedule: Q01DX001 (ip), vehicle: Klucel (hydroxypropylcellulose) (HPC) 104 % of control

Cc1nc(N)c2ncn(C3OC(CO)C(O)C3O)c2n1 (stereo unspecified)
inactive: [12] 100 % of control | [1] 106 % of control | [2] 109 % of control | [13] 112 % of control

O=C(S)CC1(O)CCCCC1
inactive: dose: 100.0 mg/kg/injection, schedule: Q04DX003 (ip), vehicle: Klucel (hydroxypropylcellulose) (HPC) 99 % of control | dose: 200.0 mg/kg/injection, schedule: Q04DX003 (ip), vehicle: Klucel (hydroxypropylcellulose) (HPC) 100 % of control | dose: 400.0 mg/kg/injection, schedule: Q04DX003 (ip), vehicle: Klucel (hydroxypropylcellulose) (HPC) 96 % of control

CN(C)P(=O)(N=S=NC(C)(C)C)N(C)C
inactive: [13] 109 % of control | dose: 100.0 mg/kg/injection, schedule: Q01DX009 (ip), vehicle: saline 115 % of control

Nc1ncnc2nc(Cl)[nH]c12
inactive: [6] 91 % of control | [7] 93 % of control | [8] 93 % of control

O=P(O)(O)O
inactive: dose: 60.0 mg/kg/injection, schedule: Q01DX005 (ip), vehicle: saline 97 % of control | dose: 120.0 mg/kg/injection, schedule: Q01DX005 (ip), vehicle: saline 97 % of control | dose: 240.0 mg/kg/injection, schedule: Q01DX005 (ip), vehicle: saline 90 % of control

c1ccc(Cn2nnnc2-c2ccccc2)cc1
inactive: dose: 100.0 mg/kg/injection, schedule: Q04DX003 (ip), vehicle: saline with Tween-80 100 % of control | dose: 200.0 mg/kg/injection, schedule: Q04DX003 (ip), vehicle: saline with Tween-80 96 % of control | dose: 400.0 mg/kg/injection, schedule: Q04DX003 (ip), vehicle: saline with Tween-80 88 % of control

CCN(CC)Cc1cc(Nc2ccnc3cc(N(C)C)ccc23)ccc1O
inactive: [12] 103 % of control | [1] 115 % of control | [2] 115 % of control

[O-]c1c(Cl)c(Cl)c(O[P+](c2ccccc2)(c2ccccc2)c2ccccc2)c(Cl)c1Cl
inactive: [12] 108 % of control and 96 % of control | [1] 113 % of control and 97 % of control | [2] 108 % of control and 114 % of control and 92 % of control | [13] 113 % of control

Cn1ncc2c(=O)[nH]cnc21
inactive: [9] 93 % of control | [10] 93 % of control | [11] 96 % of control | dose: 400.0 mg/kg/injection, schedule: Q01DX009 (ip), vehicle: Klucel (hydroxypropylcellulose) (HPC) 97 % of control

COC(=O)C1CC(C)N1C(C)C (stereo unspecified)
inactive: dose: 50.0 mg/kg/injection, schedule: Q01DX005 (ip), vehicle: saline 95 % of control | dose: 100.0 mg/kg/injection, schedule: Q01DX005 (ip), vehicle: saline 97 % of control | dose: 200.0 mg/kg/injection, schedule: Q01DX005 (ip), vehicle: saline 100 % of control
